According to PubChem BioAssay (NCI):
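Following 48 hours of exposure in 96-well plates, responses at five concentrations were used to interpolate endpoints linearly. TGI marks complete inhibition of growth.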

Experiments:
Assay in all cases: inhibition of tumour cell growth, NCI panel, 48 h
[1] = system: OVCAR-8 ovarian
[2] = system: SK-OV-3 ovarian
[3] = system: OVCAR-5 ovarian
[4] = system: SNB-75 CNS
[5] = system: IGROV1 ovarian
[6] = system: NCI-H23 lung
[7] = system: RPMI-8226 leukemia
[8] = system: MCF7 breast
[9] = system: U251 CNS
[10] = system: SF-539 CNS
[11] = system: OVCAR-3 ovarian
[12] = system: HCT-15 colon
[13] = system: HT29 colon
[14] = system: HOP-62 NSCLC
[15] = system: T-47D breast
[16] = system: SK-MEL-28 melanoma
[17] = system: BT-549 breast
[18] = system: CCRF-CEM leukemia
[19] = system: HOP-92 NSCLC
[20] = system: COLO 205 colon
[21] = system: NCI-H226 lung
[22] = system: HCT-116 colon
[23] = system: M14 melanoma
[24] = system: LOX IMVI melanoma
[25] = system: MDA-MB-231 breast
[26] = system: A498 renal
[27] = system: MDA-N
[28] = system: SNB-19 CNS
[29] = system: SK-MEL-2 melanoma
[30] = system: MDA-MB-435
[31] = system: ACHN renal
[32] = system: KM12 colon
[33] = system: MALME-3M melanoma
[34] = system: UACC-257 melanoma
[35] = system: UACC-62 melanoma
[36] = system: CAKI-1 renal
[37] = system: RXF 393 renal
[38] = system: PC-3 prostate
[39] = system: DU-145 prostate
[40] = system: HS 578T breast
[41] = system: 786-0 renal
[42] = system: K-562 leukemia
[43] = system: NCI-H522 lung
[44] = system: SN12C renal
[45] = system: SK-MEL-5 melanoma
[46] = system: NCI/ADR-RES ovarian
[47] = system: TK-10 renal
[48] = system: SR leukemia
[49] = system: HCC-2998 colon
[50] = system: UO-31 renal
[51] = system: SW-620 colon
[52] = system: OVCAR-4 ovarian
[53] = system: HL-60(TB) leukemia
[54] = system: SF-268 CNS
[55] = system: SF-295 CNS
[56] = system: NCI-H460 lung
[57] = system: A549 NSCLC

Measured: TGI

O=C(O)CCC1(C(=O)O)CCC(=O)c2ccccc21 (configuration not stated)
> 100 µM: all assays above
